In this experiment the test system is Proteus. Briefly: Proteus background growth, plates inoculated with mixed culture of Proteus and Shigella. The class given is cell-based. As to conditions: general statement. The text has this: FIG. 6 is a photograph of two plates. The plate on the right is coated with the selective growth media N4 agar of the present invention. The plate on the left is coated with SS agar.
FIG. 7 presents a photograph of two agar coated plates. On the right is a plate coated with a prototype N4 formulation assessing the concentration of NIAPROOF®4 for the suppression of competing, background bacterial growth while allowing good growth of Shigella. The plate on the left is coated with XLD agar. Both plates were inoculated with a mixed culture of Proteus and Shigella organisms and allowed to grow overnight.

Counter-ions that a name gives are not always drawn.

On to `CCCCC(CC)CCC(CC(C)C)OS(=O)(=O)O` (stereo not shown) [NIAPROOF®4, 7-ethyl-2-methyl-4-undecanol hydrogen sulfate], for which the “Suppression of Proteus spp.” value is “very potent reagent in suppressing Proteus spp”.

The values above are taken from patent US7842496B2, “Advanced selective plating media” (University of Maryland, priority 2006, dated 2010).
